Source: PubChem BioAssay (NCI)
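All cell lines were grown in 96-well plates and treated with compound for 48 hours. GI50 marks 50% less growth. TGI: total growth inhibition.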

Tests used:
Assay in all cases: NCI-60 cell line screen, 48 h
KM12 colon = tested on: KM12 colon
SF-295 CNS = tested on: SF-295 CNS
SK-OV-3 ovarian = tested on: SK-OV-3 ovarian
SF-268 CNS = tested on: SF-268 CNS
IGROV1 ovarian = tested on: IGROV1 ovarian
CCRF-CEM leukemia = tested on: CCRF-CEM leukemia
SK-MEL-5 melanoma = tested on: SK-MEL-5 melanoma
MALME-3M melanoma = tested on: MALME-3M melanoma
NCI-H460 lung = tested on: NCI-H460 lung
SR leukemia = tested on: SR leukemia
A498 renal = tested on: A498 renal

Row | Structure (SMILES) | TGI (KM12 colon) [µM] | TGI (SF-295 CNS) [µM] | TGI (SK-OV-3 ovarian) [µM] | TGI (SF-268 CNS) [µM] | TGI (IGROV1 ovarian) [µM] | TGI (CCRF-CEM leukemia) [µM] | TGI (SK-MEL-5 melanoma) [µM] | TGI (MALME-3M melanoma) [µM] | TGI (NCI-H460 lung) [µM] | TGI (SR leukemia) [µM] | TGI (A498 renal) [µM] | GI50 (KM12 colon) [µM] | GI50 (SF-295 CNS) [µM] | GI50 (SK-OV-3 ovarian) [µM] | GI50 (SR leukemia) [µM] | GI50 (SF-268 CNS) [µM] | GI50 (IGROV1 ovarian) [µM] | GI50 (CCRF-CEM leukemia) [µM] | GI50 (SK-MEL-5 melanoma) [µM]
1 | CN(C)CCN1C(=O)c2ccccc2C1(O)c1ccc(Cl)cc1 (configuration not stated) | > 100 | > 100 | > 100 | > 100 | > 100 | > 100 | 67.2 | 70.7 | > 100 |  |  |  |  |  |  |  |  |  | 
2 | C=CC(c1ccccc1)C1(O)c2cccc(O)c2C(=O)c2c(O)cccc21 (configuration not stated) | 40.9 | 40.4 |  | 36.6 | 32.6 |  | 32 |  | 36.7 | 24.2 | 34.6 |  |  |  |  |  |  |  | 
3 | COc1ccc(-c2cc(-c3ccco3)c(C#N)c(=S)n2C2OC(CO)C(O)C(O)C2O)cc1 (configuration not stated) | > 100 | > 100 | > 100 | > 100 | > 100 | > 100 | > 100 | > 100 | > 100 |  | > 100 |  |  |  |  |  |  |  | 
4 | C=CC1(c2ccc(Br)cc2)OCCCO1 | > 100 | > 100 | > 100 | > 100 | > 100 | > 100 | > 100 | > 100 | > 100 | > 100 |  |  |  |  |  |  |  |  | 
5 | O=C1OC2(c3ccc(O)cc3Oc3cc(O)ccc32)c2c1c(-c1ccccc1)c(-c1ccccc1)c(-c1ccccc1)c2-c1ccccc1 | 32.3 | 49.5 | > 100 | 53.1 | 37.4 |  | 54 | 44.6 | 33.7 | 46.1 | 33.9 |  |  |  |  |  |  |  | 
6 | O=c1[nH]c2ccsc2c(=O)n1COCc1ccccc1 | > 100 | > 100 |  | > 100 | > 100 | > 100 | > 100 | > 100 | > 100 | > 100 | > 100 |  |  |  |  |  |  |  | 
7 | CC1(C)N=C(N)N=C(N)N1c1cccc(OCc2cccc([N+](=O)[O-])c2)c1 | > 100 | > 100 | > 100 | > 100 | > 100 | > 100 | > 88.7 | > 100 | 51.6 |  | > 100 |  |  |  |  |  |  |  | 
8 | C/C(=C\COP(=O)(O)OP(=O)(O)O)CC/C=C(\C)CNc1ccc([N+](=O)[O-])cc1 | > 100 | > 100 | > 100 | > 100 | > 100 | > 100 | > 100 | > 100 | > 100 | > 100 |  |  |  |  |  |  |  |  | 
9 | C=C1CC(COc2ccc3ccc(=O)oc3c2)(c2ccccc2)OC1=O (configuration not stated) | 13.5 | 20.7 | 16.1 | 11.9 | 3.36 | 2.7 | 2.85 | 6.77 | 28 | > 31 |  |  |  |  |  |  |  |  | 
10 | N#CC1=C(N)Nc2nc3ccccc3n2C1c1ccccc1 (configuration not stated) | > 100 | > 100 | > 100 | > 100 | > 100 | > 100 | > 100 |  | > 100 | > 100 | 96.1 |  |  |  |  |  |  |  | 
11 | COc1ccc(-n2cnc3c(NC(C)(C)C(=O)O)ncnc32)cc1 | > 100 | > 100 | > 100 | > 100 | > 100 | > 100 | > 100 |  | > 100 | > 100 | > 100 |  |  |  |  |  |  |  | 
12 | COC(=O)/C(C#N)=C(\Nc1ccccc1)N1CCCCC1 |  | > 100 | > 100 | > 100 | > 100 |  | > 100 | > 100 | > 100 | > 100 | > 100 |  |  |  |  |  |  |  | 
13 | CCOn1cc(C2=C(c3c[nH]c4ccccc34)C(=O)NC2=O)c2ccccc21 | 2 | 0.0443 | 0.735 | 25.1 | > 61.6 | 19 | < 0.01 |  | 15.4 | 29.4 |  | < 0.0161 | 0.0156 | 0.062 | 0.0343 | < 0.0385 | 15.8 | 0.0672 | < 0.01
14 | CCOC(=O)c1c(NC(=O)c2ccc(OC)cc2)sc2c1CCCC2 | > 100 | > 100 |  | > 100 | > 100 | > 100 | > 100 |  | > 100 | > 100 | > 100 |  |  |  |  |  |  |  | 
15 | COc1cc(CCCC(O)COc2cccc3c2C2(O)CCCCCC32)cc(OC)c1 (configuration not stated) | 34.5 | 30.5 | 38.5 | 32.9 | 28.5 | > 100 | 20.5 | 31.8 | 34.7 |  | 34.1 |  |  |  |  |  |  |  | 
16 | COC(=O)c1cc(C#N)[nH]c1-c1cccs1 | > 100 | > 100 | > 100 | > 100 |  | > 100 |  |  | > 100 | > 100 | 86 |  |  |  |  |  |  |  | 
17 | CC(C)C(Cl)CC/C(CBr)=C(\Cl)CCl (configuration not stated) | 16.4 | 30.6 | 17.8 | 32.1 | 4.09 |  | 5.95 | 19.6 | 29.3 |  | 35.7 |  |  |  |  |  |  |  | 
18 | Nc1c(Cl)c([N+](=O)[O-])cc2c1OCCCCO2 | > 100 | > 100 | 55.6 | > 100 | > 100 | > 100 | > 100 | > 100 | > 100 | > 100 |  |  |  |  |  |  |  |  | 
19 | COc1cc(/C=C2\N=C(c3ccccc3)N(/N=C/c3cc4cc(C)ccc4nc3Cl)C2=O)cc(OC)c1OC | > 100 | > 100 | > 100 | > 100 | > 100 |  | > 100 |  | > 100 | 57.4 | > 100 |  |  |  |  |  |  |  | 
20 | Cc1ccccc1NC(=O)/C(C#N)=N\Nc1nc[nH]c1C(N)=O | > 100 | > 100 | > 100 | > 100 | > 100 | > 100 | > 100 | > 100 | > 100 |  |  |  |  |  |  |  |  |  | 
21 | CCCCc1ccc(N2C(=O)c3cccnc3S2(=O)=O)cc1 | > 100 | > 100 | > 100 | > 100 | > 100 | > 100 |  | > 100 | > 100 | > 100 | > 100 |  |  |  |  |  |  |  | 
